Test results taken from ChEMBL document CHEMBL1201862, “PubChem BioAssay data set” (2004).
Active and inactive are the calls of the source.

Tests used:
Bcl-2-like protein 10 = Bcl-2-like protein 10 (Homo sapiens, UniProt Q9HD36); assay: Bcl-B/TR3 peptide binding disruption – biochemical, fluorescence polarization, FITC-TR3 peptide, selectivity assay for Bfl-1 inhibitor project, primary screen (AID 748);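 also: fluorescence polarization from a fluorescein-labelled TR3 peptide binding purified Bcl-B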
Estrogen receptor beta = Estrogen receptor beta (Homo sapiens, UniProt Q92731); assay: blockers of SRC-3 recruitment to ERβ – biochemical, ELISA, streptavidin-HRP readout, orthogonal assay, confirmation (AID 1060)
[1] = target: Induced myeloid leukemia cell differentiation protein Mcl-1 (Homo sapiens, UniProt Q07820); format: functional
[2] = target: T1, Tyrosine-protein phosphatase non-receptor type 7 (Homo sapiens, UniProt P35236); assay: redox-active compounds inhibiting HePTP phosphatase – biochemical, fluorescence, mechanism study (AID 2068); format: functional
T1 sequence (P35236 whole entry): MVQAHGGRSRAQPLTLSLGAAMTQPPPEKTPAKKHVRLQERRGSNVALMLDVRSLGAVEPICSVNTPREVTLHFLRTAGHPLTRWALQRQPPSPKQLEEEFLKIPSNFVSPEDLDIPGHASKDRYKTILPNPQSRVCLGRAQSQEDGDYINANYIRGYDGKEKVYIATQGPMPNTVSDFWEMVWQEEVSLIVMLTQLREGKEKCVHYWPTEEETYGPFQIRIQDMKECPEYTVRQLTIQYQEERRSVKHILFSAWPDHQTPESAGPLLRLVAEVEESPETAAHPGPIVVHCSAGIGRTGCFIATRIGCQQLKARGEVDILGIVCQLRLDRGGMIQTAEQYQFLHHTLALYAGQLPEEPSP

[3] = target: T2, Dual specificity protein phosphatase 3 (Homo sapiens, UniProt P51452); assay: VHR1 phosphatase inhibitors, primary screen, biochemical, absorbance, uHTS (AID 1654)
[4] = target: Serine/threonine-protein phosphatase PP1-alpha catalytic subunit (Homo sapiens, UniProt P62136); assay: inhibition of protein phosphatase 1 activity – biochemical, fluorescence, dose response (AID 2403);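 also: phosphatase turnover of OMFP into fluorescent 3-O-methylfluorescein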
[5] = target: T3, Voltage-gated N-type calcium channel alpha-1B subunit/Amyloid beta A4 precursor protein-binding family A member 1 (Homo sapiens, UniProt Q00975+Q02410); format: protein assay
[6] = target: T3, Voltage-gated N-type calcium channel alpha-1B subunit/Amyloid beta A4 precursor protein-binding family A member 1; format: protein assay; remark: listed apart in the source
[7] = target: Serine/threonine-protein phosphatase (Homo sapiens, UniProt Q9BPW0); assay: Counterscreen for inhibitors of PP1: fluorescence-based biochemical high throughput dose response assay to identify inhibitors of Protein Phosphatase 5 (PP5). [Related pubchem assays: 2034 (Summary (PP5 inhibitors)), 1987 (PP5 inhibitors in singlate), 2235 (PP1 inhibitors in singlate)]
[8] = target: T2, Dual specificity protein phosphatase 3; assay: VHR1 phosphatase inhibitors, biochemical (AID 1878)
[9] = target: T4, Dual specificity protein phosphatase 6 (Rattus norvegicus, UniProt Q64346); assay: inhibition of rat DUSP6 enzyme activity – biochemical, in vitro, primary screen (AID 425)
T4 sequence (Q64346 whole entry): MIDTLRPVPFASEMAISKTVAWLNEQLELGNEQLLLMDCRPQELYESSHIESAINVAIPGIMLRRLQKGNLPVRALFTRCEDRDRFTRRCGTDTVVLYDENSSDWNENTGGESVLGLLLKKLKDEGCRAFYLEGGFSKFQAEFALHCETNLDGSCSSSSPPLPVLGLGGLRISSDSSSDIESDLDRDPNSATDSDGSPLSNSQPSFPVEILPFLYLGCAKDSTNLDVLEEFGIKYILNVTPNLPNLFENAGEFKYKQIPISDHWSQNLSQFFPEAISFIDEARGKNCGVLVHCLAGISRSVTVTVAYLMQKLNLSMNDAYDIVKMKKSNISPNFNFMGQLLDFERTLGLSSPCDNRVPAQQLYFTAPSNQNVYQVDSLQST

[10] = target: Tyrosine-protein phosphatase non-receptor type 12 (Homo sapiens, UniProt Q05209); assay: SAR Selectivity Analysis of small molecule inhibitors of PEST using pCAP in a fluorescence assay. [Related pubchem assays (depositor defined):AID1779, AID1784, AID2135]; format: functional
[11] = target: T2, Dual specificity protein phosphatase 3; assay: SAR VHR1 absorbance Assay for In Vitro dose response studies. [Related pubchem assays (depositor defined):AID1654, AID1661, AID1878, AID1992, AID2004]
[12] = target: T2, Dual specificity protein phosphatase 3; assay: SAR VHR1 Fluorescent Assay for In Vitro dose response studies. [Related pubchem assays (depositor defined):AID1654, AID1661, AID1878, AID1992, AID2004, AID2070, AID2085]; format: functional
[13] = target: T5, Tyrosine-protein phosphatase non-receptor type 22 (Homo sapiens, UniProt Q9Y2R2); assay: SAR LYP1 Fluorescent Assay using OMFP substrate for In Vitro dose response studies - Set 3. [Related pubchem assays (depositor defined):AID1779, AID1784, AID2140, AID2686]; format: functional
T5 sequence (Q9Y2R2 whole entry): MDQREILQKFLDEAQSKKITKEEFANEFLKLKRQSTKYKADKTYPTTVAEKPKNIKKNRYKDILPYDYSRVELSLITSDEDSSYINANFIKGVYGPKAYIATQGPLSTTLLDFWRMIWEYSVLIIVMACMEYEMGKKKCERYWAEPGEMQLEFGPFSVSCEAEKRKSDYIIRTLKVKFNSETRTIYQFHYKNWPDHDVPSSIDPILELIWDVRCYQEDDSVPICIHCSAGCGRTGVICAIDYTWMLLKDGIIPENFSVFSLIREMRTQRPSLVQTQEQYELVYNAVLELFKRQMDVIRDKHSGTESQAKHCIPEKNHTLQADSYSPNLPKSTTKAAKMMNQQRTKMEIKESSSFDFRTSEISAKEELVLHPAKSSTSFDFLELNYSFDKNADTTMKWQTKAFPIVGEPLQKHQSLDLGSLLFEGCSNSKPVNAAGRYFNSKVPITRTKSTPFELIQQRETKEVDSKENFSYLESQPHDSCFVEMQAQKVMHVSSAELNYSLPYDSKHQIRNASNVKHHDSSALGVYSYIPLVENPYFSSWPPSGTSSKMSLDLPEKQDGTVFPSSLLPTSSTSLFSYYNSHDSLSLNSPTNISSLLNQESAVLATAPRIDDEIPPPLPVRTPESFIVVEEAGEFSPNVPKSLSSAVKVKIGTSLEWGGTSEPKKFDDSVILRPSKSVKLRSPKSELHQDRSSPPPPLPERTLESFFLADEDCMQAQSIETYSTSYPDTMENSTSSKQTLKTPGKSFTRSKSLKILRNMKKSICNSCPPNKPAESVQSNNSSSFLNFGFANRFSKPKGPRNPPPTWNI

[14] = target: T5, Tyrosine-protein phosphatase non-receptor type 22; assay: inhibition of lymphoid tyrosine phosphatase LYP – biochemical, pCAP fluorogenic substrate, fluorescence, set 3, SAR follow-up (AID 449727); format: functional
[15] = target: T4, Dual specificity protein phosphatase 6; format: functional
[16] = target: T6, Long-chain-fatty-acid--AMP ligase FadD28 (Mycobacterium tuberculosis, UniProt P9WQ59); assay: Fluorescence polarization aasay to screen for inhibitors that compete for the binding of FadD28 to a bisubstrate Measured in Biochemical System Using Plate Reader - 2147-01_Inhibitor_Dose_CherryPick_Activity.; format: functional, Mycobacterium tuberculosis H37Rv
T6 sequence (P9WQ59 whole entry): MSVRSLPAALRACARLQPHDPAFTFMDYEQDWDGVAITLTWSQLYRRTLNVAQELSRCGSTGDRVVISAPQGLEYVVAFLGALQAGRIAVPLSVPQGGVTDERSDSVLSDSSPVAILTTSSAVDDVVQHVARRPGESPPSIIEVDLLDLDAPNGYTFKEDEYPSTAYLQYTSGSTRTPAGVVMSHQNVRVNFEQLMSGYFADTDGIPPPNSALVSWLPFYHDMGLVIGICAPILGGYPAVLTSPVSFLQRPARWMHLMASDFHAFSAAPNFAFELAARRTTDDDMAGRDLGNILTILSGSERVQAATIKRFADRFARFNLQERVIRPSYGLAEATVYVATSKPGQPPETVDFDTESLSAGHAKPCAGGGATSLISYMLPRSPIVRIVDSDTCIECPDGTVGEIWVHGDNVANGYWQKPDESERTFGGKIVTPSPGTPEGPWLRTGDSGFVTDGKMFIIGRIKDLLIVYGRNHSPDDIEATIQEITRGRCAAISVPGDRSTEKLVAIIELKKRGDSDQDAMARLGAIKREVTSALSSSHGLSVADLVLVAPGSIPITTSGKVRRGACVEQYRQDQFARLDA

Trypsin = Trypsin (Sus scrofa, UniProt P00761); assay: trypsin protease activity blockade – biochemical, quenched peptide fluorescence, cherry-pick, selectivity assay for Rce1 protease inhibitor project, dose response (AID 488789)
CAAX prenyl protease 2 = CAAX prenyl protease 2 (Saccharomyces cerevisiae S288c, UniProt Q03530); format: biochemical
[17] = target: G-protein coupled receptor 35 (Homo sapiens, UniProt Q9HC97); assay: inhibition of zaprinast-stimulated GPR35 beta-arrestin translocation – imaging, U2OS, beta-arrestin-GFP, zaprinast agonist, primary screen (AID 2058); format: functional;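 also: antagonist potency meaning inhibition of agonist-induced arrestin redistribution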
[18] = target: T7, Neuropeptides B/W receptor type 1 (Homo sapiens, UniProt P48145); assay: Fluorescence-based dose response cell-based high throughput screening assay to identify antagonists of the G-protein coupled receptor 7 (GPR7). [Related pubchem assays: 1952 (Screening assay (GPR7 antagonists).), 1880 (Summary AID.)]; format: functional
T7 sequence (P48145 whole entry): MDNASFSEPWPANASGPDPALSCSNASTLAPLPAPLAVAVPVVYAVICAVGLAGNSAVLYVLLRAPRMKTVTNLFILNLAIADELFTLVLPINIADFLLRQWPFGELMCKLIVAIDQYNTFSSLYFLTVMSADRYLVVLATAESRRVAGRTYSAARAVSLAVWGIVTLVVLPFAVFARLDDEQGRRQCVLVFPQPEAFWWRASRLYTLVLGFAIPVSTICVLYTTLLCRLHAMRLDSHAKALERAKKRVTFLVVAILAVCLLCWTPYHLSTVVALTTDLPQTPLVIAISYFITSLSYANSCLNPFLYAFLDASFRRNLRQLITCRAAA

[19] = target: T8, Melanin-concentrating hormone receptor 1 (Homo sapiens, UniProt Q99705); assay: Fluorescence-based counterscreen for antagonists of the G-protein coupled receptor 7 (GPR7): cell-based high throughput dose response assay to identify antagonists of the melanin-concentrating hormone receptor 1 (MCHR1).; format: functional
[20] = target: T8, Melanin-concentrating hormone receptor 1; assay: Late-stage fluorescence-based counterscreen for antagonists of the G-protein coupled receptor 7 (GPR7): cell-based dose response assay to identify antagonists of the melanin-concentrating hormone receptor 1 (MCHR1). [Related pubchem assays (depositor defined):AID1861, AID1880, AID1952, AID2148, AID2251, AID2257, AID485339]; format: functional
Protein Rev = Protein Rev (Human immunodeficiency virus type 1 group M subtype B (isolate HXB2)(HIV-1), UniProt P04618); assay: blockers of HIV Rev/RRE RNA complex – biochemical, fluorescence polarization, HIV-1, dose response (AID 434976); design: species or system Human immunodeficiency virus 1
[21] = target: Female germline-specific tumor suppressor gld-1 (Caenorhabditis elegans, UniProt Q17339); assay: blockers of GLD-1/TGE RNA complex formation – biochemical, fluorescence polarization, C. elegans, dose response (AID 2802);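 also: fluorescence polarization of labeled TGE RNA bound by purified gld-1 protein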
[22] = target: T9, Polyadenylate-binding protein 1 (Homo sapiens, UniProt P11940); assay: MLLE binding blockers, Cy5 peptide tracer – biochemical, fluorescence polarization, Cy5-PAM2 peptide, secondary, miRNA deadenylation inhibitor project, dose response (AID 602260); format: functional; settings: read-out: IC50_Mean
[23] = target: T9, Polyadenylate-binding protein 1; assay: MLLE domain peptide-binding blockers, IC50 – biochemical, fluorescence polarization, FITC-PAM2 peptide, dose response (AID 602259); format: functional; settings: read-out: IC50_Mean
Protein Tat = target: T10, Protein Tat (Human immunodeficiency virus type 1 group M subtype B (isolate HXB2)(HIV-1), UniProt P04608); format: functional;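 also: tat binding to TAR RNA read out by fluorescence polarization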
T10 sequence (P04608 whole entry): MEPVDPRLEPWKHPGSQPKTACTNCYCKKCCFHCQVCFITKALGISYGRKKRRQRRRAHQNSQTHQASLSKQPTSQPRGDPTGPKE

[24] = viability loss in THP-1 monocytes – THP-1 cells, cytotoxicity control for Vif-APOBEC3G degradation inhibitor project, dose response (AID 1117359); format: functional; settings: THP-1

T2 sequence (P51452 whole entry): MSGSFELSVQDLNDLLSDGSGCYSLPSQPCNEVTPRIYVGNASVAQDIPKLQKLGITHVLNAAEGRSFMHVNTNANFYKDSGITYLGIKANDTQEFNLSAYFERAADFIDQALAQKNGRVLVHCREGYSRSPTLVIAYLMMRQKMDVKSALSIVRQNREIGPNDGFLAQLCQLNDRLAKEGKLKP
T8 sequence (Q99705 whole entry): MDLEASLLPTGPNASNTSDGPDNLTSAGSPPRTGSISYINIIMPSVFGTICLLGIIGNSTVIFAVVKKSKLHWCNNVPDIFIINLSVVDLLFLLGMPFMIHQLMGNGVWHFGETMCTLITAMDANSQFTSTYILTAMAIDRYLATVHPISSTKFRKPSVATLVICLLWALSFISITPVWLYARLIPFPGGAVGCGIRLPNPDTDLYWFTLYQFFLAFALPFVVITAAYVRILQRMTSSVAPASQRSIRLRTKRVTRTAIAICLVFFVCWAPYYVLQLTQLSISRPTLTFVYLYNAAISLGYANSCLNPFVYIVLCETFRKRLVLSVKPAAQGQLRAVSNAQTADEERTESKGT
T9 sequence (P11940 whole entry, the tested form may be a part): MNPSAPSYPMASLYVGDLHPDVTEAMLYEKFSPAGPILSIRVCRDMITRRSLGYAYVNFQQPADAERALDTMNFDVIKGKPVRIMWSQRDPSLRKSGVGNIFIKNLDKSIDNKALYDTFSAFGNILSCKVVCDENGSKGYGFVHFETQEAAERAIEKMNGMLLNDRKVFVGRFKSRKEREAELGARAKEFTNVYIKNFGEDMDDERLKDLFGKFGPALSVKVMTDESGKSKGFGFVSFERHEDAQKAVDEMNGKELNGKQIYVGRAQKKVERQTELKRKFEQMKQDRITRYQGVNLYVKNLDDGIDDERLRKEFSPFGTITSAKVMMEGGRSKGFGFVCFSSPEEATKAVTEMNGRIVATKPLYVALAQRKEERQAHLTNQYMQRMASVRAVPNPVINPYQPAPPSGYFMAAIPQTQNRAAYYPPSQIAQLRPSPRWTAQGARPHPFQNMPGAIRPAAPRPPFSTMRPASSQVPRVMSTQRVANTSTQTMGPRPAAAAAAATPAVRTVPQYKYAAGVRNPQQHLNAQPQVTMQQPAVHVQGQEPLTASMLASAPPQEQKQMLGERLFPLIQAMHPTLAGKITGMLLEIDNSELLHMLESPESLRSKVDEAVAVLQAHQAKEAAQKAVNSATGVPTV
T3 sequence (Q00975 whole entry): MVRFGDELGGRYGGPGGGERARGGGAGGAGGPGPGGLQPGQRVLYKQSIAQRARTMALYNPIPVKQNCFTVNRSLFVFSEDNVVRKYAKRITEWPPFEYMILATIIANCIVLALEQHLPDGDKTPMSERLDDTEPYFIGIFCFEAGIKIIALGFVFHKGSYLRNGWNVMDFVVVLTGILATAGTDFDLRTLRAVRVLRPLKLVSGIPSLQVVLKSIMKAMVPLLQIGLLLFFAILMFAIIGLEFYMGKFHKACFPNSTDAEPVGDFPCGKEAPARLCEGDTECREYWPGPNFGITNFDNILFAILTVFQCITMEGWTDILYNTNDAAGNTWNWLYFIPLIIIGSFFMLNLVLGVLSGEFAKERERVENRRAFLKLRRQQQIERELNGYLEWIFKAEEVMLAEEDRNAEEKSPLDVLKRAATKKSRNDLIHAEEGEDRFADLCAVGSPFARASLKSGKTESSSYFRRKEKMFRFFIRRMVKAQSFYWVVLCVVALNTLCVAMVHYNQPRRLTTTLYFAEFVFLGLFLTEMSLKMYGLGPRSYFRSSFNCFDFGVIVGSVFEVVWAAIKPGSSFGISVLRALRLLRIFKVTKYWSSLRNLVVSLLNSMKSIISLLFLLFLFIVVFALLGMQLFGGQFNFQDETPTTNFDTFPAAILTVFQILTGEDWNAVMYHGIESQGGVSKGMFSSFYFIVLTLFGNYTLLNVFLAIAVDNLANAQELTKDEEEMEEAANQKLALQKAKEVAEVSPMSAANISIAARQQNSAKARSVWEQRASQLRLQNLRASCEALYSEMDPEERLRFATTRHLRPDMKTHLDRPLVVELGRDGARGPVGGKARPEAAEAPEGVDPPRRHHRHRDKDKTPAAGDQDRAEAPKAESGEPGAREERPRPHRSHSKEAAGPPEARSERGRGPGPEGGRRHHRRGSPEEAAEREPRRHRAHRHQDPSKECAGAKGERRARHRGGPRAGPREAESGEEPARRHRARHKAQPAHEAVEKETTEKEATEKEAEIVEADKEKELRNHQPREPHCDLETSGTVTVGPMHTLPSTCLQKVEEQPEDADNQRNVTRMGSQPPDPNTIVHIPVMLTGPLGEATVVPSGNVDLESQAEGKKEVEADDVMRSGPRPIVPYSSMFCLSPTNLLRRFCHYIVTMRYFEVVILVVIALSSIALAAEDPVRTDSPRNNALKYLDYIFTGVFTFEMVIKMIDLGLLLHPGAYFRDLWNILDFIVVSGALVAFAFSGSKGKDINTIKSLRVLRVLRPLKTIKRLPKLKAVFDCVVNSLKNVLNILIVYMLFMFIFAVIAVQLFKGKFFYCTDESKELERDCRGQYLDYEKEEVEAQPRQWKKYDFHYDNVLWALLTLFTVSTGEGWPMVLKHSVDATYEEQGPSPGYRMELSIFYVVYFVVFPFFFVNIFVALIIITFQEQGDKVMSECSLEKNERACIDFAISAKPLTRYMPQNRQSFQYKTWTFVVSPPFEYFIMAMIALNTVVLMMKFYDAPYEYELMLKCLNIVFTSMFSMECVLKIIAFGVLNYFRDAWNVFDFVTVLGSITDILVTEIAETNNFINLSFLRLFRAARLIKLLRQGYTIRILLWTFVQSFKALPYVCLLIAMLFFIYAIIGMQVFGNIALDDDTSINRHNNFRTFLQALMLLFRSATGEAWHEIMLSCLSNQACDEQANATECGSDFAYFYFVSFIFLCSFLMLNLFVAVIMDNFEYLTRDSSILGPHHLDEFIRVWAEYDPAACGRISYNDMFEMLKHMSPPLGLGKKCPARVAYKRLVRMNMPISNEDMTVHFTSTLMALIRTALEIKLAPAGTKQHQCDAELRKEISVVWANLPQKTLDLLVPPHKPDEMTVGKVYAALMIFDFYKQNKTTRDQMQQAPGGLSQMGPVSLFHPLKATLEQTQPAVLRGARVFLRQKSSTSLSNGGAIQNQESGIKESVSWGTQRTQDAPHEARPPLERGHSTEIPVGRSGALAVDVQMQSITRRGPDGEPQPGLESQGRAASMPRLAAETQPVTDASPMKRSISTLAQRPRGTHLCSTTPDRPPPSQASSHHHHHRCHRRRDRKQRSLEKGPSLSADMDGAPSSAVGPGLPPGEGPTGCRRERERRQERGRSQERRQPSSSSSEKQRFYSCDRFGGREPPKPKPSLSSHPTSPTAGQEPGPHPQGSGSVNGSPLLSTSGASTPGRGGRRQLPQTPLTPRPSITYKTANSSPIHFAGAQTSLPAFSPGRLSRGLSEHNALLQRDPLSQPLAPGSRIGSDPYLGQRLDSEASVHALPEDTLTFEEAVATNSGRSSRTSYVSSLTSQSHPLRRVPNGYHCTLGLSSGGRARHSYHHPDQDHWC
T3 sequence (Q02410 whole entry): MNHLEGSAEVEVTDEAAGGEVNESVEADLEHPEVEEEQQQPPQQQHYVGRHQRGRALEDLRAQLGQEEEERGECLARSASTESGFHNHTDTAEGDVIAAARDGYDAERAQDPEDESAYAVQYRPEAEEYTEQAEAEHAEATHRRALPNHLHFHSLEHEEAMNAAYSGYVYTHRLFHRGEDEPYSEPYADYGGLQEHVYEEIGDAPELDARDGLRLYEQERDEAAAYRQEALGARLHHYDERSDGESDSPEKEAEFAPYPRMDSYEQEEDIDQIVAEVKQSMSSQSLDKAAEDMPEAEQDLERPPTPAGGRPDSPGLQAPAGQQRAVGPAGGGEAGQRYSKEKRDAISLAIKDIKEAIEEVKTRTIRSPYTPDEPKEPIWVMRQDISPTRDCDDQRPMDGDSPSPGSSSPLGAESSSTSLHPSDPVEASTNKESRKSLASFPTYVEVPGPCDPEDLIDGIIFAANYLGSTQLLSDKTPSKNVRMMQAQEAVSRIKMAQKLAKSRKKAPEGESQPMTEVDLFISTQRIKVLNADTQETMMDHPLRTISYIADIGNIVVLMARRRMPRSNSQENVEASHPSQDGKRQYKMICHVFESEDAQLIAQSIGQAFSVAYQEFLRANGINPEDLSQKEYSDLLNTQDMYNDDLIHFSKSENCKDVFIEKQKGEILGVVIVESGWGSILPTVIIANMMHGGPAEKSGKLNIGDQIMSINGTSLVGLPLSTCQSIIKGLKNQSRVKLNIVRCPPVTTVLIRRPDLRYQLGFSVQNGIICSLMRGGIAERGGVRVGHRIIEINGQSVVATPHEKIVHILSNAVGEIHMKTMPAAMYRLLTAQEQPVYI
Chain of Protein Rev (P04618 whole entry): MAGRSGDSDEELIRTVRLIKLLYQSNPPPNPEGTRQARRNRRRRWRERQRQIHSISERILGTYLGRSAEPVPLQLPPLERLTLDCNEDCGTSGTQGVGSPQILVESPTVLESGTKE
Chain of Serine/threonine-protein phosphatase (Q9BPW0 whole entry): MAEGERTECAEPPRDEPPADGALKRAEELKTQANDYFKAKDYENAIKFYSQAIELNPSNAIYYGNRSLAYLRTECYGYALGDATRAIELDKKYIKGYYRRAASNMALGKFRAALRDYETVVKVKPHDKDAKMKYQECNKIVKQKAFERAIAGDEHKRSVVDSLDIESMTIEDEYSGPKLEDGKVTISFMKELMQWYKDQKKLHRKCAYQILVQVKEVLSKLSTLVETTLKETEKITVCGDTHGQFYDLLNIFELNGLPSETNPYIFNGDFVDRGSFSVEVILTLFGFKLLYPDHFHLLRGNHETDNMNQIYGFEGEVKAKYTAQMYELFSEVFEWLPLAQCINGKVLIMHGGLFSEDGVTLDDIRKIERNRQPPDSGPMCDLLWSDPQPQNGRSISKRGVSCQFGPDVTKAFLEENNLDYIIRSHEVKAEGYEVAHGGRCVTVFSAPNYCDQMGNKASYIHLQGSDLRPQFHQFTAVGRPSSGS

O=C(NCc1ccccn1)c1ccc2nc(-c3ccco3)c(-c3ccco3)nc2c1
IC50 (Bcl-2-like protein 10): 9.92 µM (active) | IC50 (Estrogen receptor beta): 4.9 µM (not active) | IC50 [1]: 2.28 µM (active) | IC50 [2]: 3.99 µM (active)

COc1cc(/C=C2\SC(=O)N(CC(=O)Nc3ccc(C)cc3)C2=O)cc(Cl)c1OCC(=O)O
IC50 [3]: 5.01 µM (active) | IC50 [4]: 6.24 µM (active) | IC50 [5]: 6.91 µM (active) | IC50 [6]: > 50 µM (inactive) | IC50 [7]: > 67 µM (not active) | IC50 [8]: < 1.23 µM (inactive) | IC50 [9]: 75.2 µM (active) | IC50 [10]: 0.313 µM (active) | IC50 [11]: 2.4 µM (active) | IC50 [12]: 1.18 µM (active) | IC50 [13]: 1.51 µM (active) | IC50 [2]: 0.256 µM (active) | IC50 [14]: 0.803 µM (active) | IC50 [15]: 6.66 µM (active) | AC50 [16]: > 100 µM (inactive)

N#Cc1nc(-c2ccco2)oc1N1CCN(C(c2ccccc2)c2ccccc2)CC1
AC50 (Trypsin): 41.5 µM (active) | AC50 (CAAX prenyl protease 2): 0.99 µM (active)

CCCCCOC(=O)c1ccc(NC(=O)c2cccc(NC(=O)c3ccccc3C(=O)O)c2)cc1
IC50 [17]: 1 µM (active)

COc1ccc(Oc2c(Cl)cnn(-c3ccc(C)cc3)c2=O)cc1
IC50 [18]: 2.94 µM (active) | IC50 [19]: 23.6 µM (not active) | IC50 [20]: 17 µM (inactive)

Clc1ccc(/C=N/c2c(-c3ccco3)nc3ccccn23)cc1
IC50 (Protein Rev): > 75.4 µM (not active) | IC50 [21]: 2.59 µM (active) | IC50 [22]: > 66 µM (inactive) | IC50 [23]: 59.2 µM (inactive) | IC50 (Protein Tat): 6.48 µM (inconclusive) | CC50 [24]: > 40 µM (active)
